Reference: ChEMBL document CHEMBL1201862, “PubChem BioAssay data set” (2004)
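Exposure lasted 48 hours, with cells grown in 96-well plates and compounds tested at five concentrations. GI50 marks 50% less growth.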 Calls of active or inactive are those of the source. No stated cut-off is given here; in the data, active = GI50 up to about 1.1 µM and inactive = higher.

Key:
Assay in all cases: inhibition of tumour cell growth, NCI panel, 48 h
[1] = tested on: COLO 205
[2] = tested on: Malme-3M
[3] = tested on: SF-539
[4] = tested on: HOP-62
[5] = tested on: HL-60
[6] = tested on: UO-31
[7] = tested on: LOX IMVI
[8] = tested on: SNB-75
[9] = tested on: U-251
[10] = tested on: K562
[11] = tested on: TK-10
[12] = tested on: SK-MEL-28
[13] = tested on: RXF 393
[14] = tested on: NCI-H522
[15] = tested on: SN12C
[16] = tested on: M14
[17] = tested on: MOLT-4
[18] = tested on: CAKI-1
[19] = tested on: NCI-H460

Measured: GI50

N#CC1(Cc2ccccc2Cl)c2ccccc2C=CN1C(=O)c1ccccc1 (stereo unspecified)
inactive: [1] > 100 µM | [2] 34.1 µM | [3] > 100 µM | [4] > 100 µM | [5] 29 µM | [6] 51.9 µM | [7] > 100 µM | [8] > 100 µM | [9] 48.9 µM | [10] 25.1 µM | [11] 46.8 µM | [12] 54.8 µM | [13] 23.2 µM | [14] 86.1 µM | [15] 77.8 µM | [16] > 100 µM | [17] 28.4 µM

N#Cc1ccccc1Sc1ccccc1N
inactive: [1] > 100 µM | [2] 42.8 µM | [3] > 100 µM | [4] > 100 µM | [5] 72.6 µM | [18] 36 µM | [6] 45.6 µM | [7] > 100 µM | [9] > 100 µM | [10] 70.6 µM | [11] > 100 µM | [19] > 100 µM | [12] > 100 µM | [13] 80.2 µM | [15] 78.3 µM | [17] 43.8 µM

FC(F)(F)C1(Cl)C(c2ccccc2)=C1c1ccccc1
inactive: [1] 16.6 µM | [2] 15.1 µM | [3] 15.6 µM | [4] 18.3 µM | [5] 7.73 µM | [18] 12.6 µM | [6] 17.9 µM | [7] 11.5 µM | [8] > 10 µM | [9] 14.7 µM | [10] 12.2 µM | [11] 20.9 µM | [19] 16 µM | [12] 14.9 µM | [13] 13.3 µM | [15] 15.6 µM | [16] 12.8 µM | [17] 4.01 µM

O=C1C=Cc2c(I)sc(I)c21
inactive: [1] 19 µM | [2] 14.5 µM | [3] 25.6 µM | [4] 38.6 µM | [18] 18.7 µM | [6] 15.8 µM | [7] 12.1 µM | [8] 30.1 µM | [9] 17 µM | [10] 14.3 µM | [11] 30.2 µM | [19] > 100 µM | [12] 19.8 µM | [13] 20.6 µM | [14] 1.99 µM | [15] 19.5 µM | [16] 27 µM | [17] 12 µM

[N-]=[N+]=NC1(c2ccccc2)C(=O)C(Cl)=C(c2ccccc2)N(c2ccccc2)C1=O (stereo unspecified)
inactive: [1] > 100 µM | [2] > 100 µM | [3] > 100 µM | [4] > 100 µM | [5] 43.1 µM | [18] > 100 µM | [6] 97.3 µM | [7] > 100 µM | [8] > 100 µM | [9] > 100 µM | [10] 46.8 µM | [11] > 100 µM | [19] > 100 µM | [12] > 100 µM | [14] 41.2 µM | [15] > 100 µM | [16] > 100 µM | [17] 58.5 µM

O=C(O)C(CS)NCc1c2ccccc2[n+]([O-])c2ccccc12 (stereo unspecified)
inactive: [1] 78.3 µM | [2] 63.1 µM | [4] 66.1 µM | [5] 23.8 µM | [18] 83.6 µM | [6] 17.5 µM | [7] 28.8 µM | [8] 24 µM | [9] 45.4 µM | [10] 20.5 µM | [11] 95.1 µM | [19] 41.4 µM | [12] 35.2 µM | [14] 94 µM | [15] 34.4 µM | [16] 46.1 µM | [17] 13.8 µM

Cc1nc(=O)[nH]c2[nH][nH]c(=O)c12
inactive: [1] > 100 µM | [2] > 100 µM | [3] > 100 µM | [4] > 100 µM | [5] > 100 µM | [18] > 100 µM | [7] > 100 µM | [9] > 100 µM | [10] > 100 µM | [11] > 100 µM | [19] > 100 µM | [12] > 100 µM | [13] > 100 µM | [14] > 100 µM | [15] > 100 µM | [16] > 100 µM | [17] > 100 µM

COc1cc2c(cc1OC)-c1c3cc(O)ccc3nn[n+]1CC2
inactive: [1] > 100 µM | [3] > 100 µM | [4] > 100 µM | [5] > 100 µM | [7] > 100 µM | [8] > 100 µM | [9] > 100 µM | [10] > 100 µM | [11] > 100 µM | [19] > 100 µM | [12] > 100 µM | [13] > 100 µM | [14] > 100 µM | [15] > 100 µM | [16] > 100 µM | [17] > 100 µM

CCOC(=O)/C(=C/c1ccc(OC)cc1)N(CC)CC
inactive: [1] > 100 µM | [2] > 100 µM | [3] > 100 µM | [4] > 100 µM | [5] 52.1 µM | [18] > 100 µM | [6] > 100 µM | [7] > 100 µM | [9] > 100 µM | [10] > 100 µM | [11] > 100 µM | [19] > 100 µM | [12] > 100 µM | [14] > 100 µM | [15] > 100 µM | [16] > 100 µM | [17] > 100 µM

C#CCOCn1cnc2ncnc(N)c21
inactive: [1] > 100 µM | [2] > 100 µM | [3] > 100 µM | [4] > 100 µM | [18] > 100 µM | [6] > 100 µM | [7] > 100 µM | [8] > 100 µM | [9] > 100 µM | [10] > 100 µM | [11] > 100 µM | [19] > 100 µM | [12] > 100 µM | [13] > 100 µM | [14] > 100 µM | [15] > 100 µM | [17] > 100 µM

[N-]=[N+]=NC(c1cn(C2CC(O)C(CO)O2)c(=O)[nH]c1=O)C(Cl)I (stereo unspecified)
inactive: [1] > 100 µM | [3] > 100 µM | [4] > 100 µM | [6] > 100 µM | [8] 33.3 µM | [9] > 100 µM | [11] > 100 µM | [19] > 100 µM | [12] > 100 µM | [13] > 100 µM | [15] > 100 µM | [16] > 100 µM | [17] > 100 µM

O=C(CCc1n[nH]c(=S)o1)Nc1ccc(Cl)cc1Cl
inactive: [1] > 100 µM | [2] > 100 µM | [3] > 100 µM | [4] > 100 µM | [5] 76.4 µM | [18] > 100 µM | [6] > 100 µM | [8] > 100 µM | [9] > 100 µM | [10] 38.7 µM | [11] > 100 µM | [19] > 100 µM | [12] > 100 µM | [14] 61.8 µM | [15] > 100 µM | [16] > 100 µM | [17] > 100 µM
